This passage reports Activity and inhibition results from ChEMBL document CHEMBL4130473, “Design, synthesis and biological evaluation of 4,7,12,12a-tetrahydro-5H-thieno[3',2':3,4]pyrido[1,2-b]isoquinolines as novel adenosine 5'-monophosphate-activated protein kinase (AMPK) indirect activators for the treatment of type 2 diabetes” (Eur J Med Chem, 2017).

Assay [1] concerns L6. Description: Stimulation of glucose consumption in rat L6 cells at 20 uM incubated for 12 hrs by glucose assay reagent based glucose oxidase method relative to untreated control. Type of assay: functional.
The subject of assay [2] is Hepatocyte. Description: Inhibition of glucose production in Sprague-Dawley rat primary hepatocytes grown under gluconeogenic medium assessed as glucose production level at 5 uM incubated for 6 hrs by glucose assay reagent based glucose oxidase method (reference value: 100%). Format: functional. On the set-up: scale not given: the % may be the effect or the level left.

The subject of assay [3] is Hepatocyte. Description: Inhibition of glucose production in Sprague-Dawley rat primary hepatocytes grown under gluconeogenic medium assessed as glucose production level at 10 uM incubated for 6 hrs by glucose assay reagent based glucose oxidase method (reference value: 100%). On the set-up: scale not given: the % may be the effect or the level left. Type of assay: functional.

Assay [4] has as its system Hepatocyte. Kind of assay: Inhibition of glucose production in Sprague-Dawley rat primary hepatocytes grown under gluconeogenic medium assessed as glucose production level at 20 uM incubated for 6 hrs by glucose assay reagent based glucose oxidase method (reference value: 100%). Format: functional. On the set-up: scale not given: the % may be the effect or the level left.

For assay [5], the system named is Hepatocyte. Kind of assay: Inhibition of glucose production in Sprague-Dawley rat primary hepatocytes grown under gluconeogenic medium incubated for 6 hrs by glucose assay reagent based glucose oxidase method (reference value: 100%). Format: functional, cell-based.
The subject of assay [6] is L6. Description: Activation of AMPKalpha in rat L6 cells assessed as increase in AMPKalpha Thr172 phosphorylation incubated for 1 hrs by Western blot method. Format: cell-based. (In general: In western blotting, separated proteins are transferred to a membrane and probed.)
Assay [7] has as its system L6. Description: Activation of AMPKalpha in rat L6 cells assessed as increase in ACC phosphorylation incubated for 1 hrs by Western blot method. Type of assay: cell-based.
Assay [8] concerns the target AMP-activated protein kinase (AMPK) alpha-1/beta-1/gamma-1 (Homo sapiens) (UniProt P54619+Q9Y478+Q13131). Description: Activation of human recombinant AMPKalpha1beta1gamma1 expressed in Escherichia coli at 20 uM incubated for 1 hr using serine/threonine kinase substrate.
The target in assay [9] is AMPK alpha1/beta1/gamma2 (Homo sapiens) (UniProt Q9UGJ0+Q9Y478+Q13131). Kind of assay: Activation of human recombinant AMPKalpha1beta1gamma2 expressed in Escherichia coli at 20 uM incubated for 1 hr using serine/threonine kinase substrate.
Assay [10] addresses AMPK alpha1/beta2/gamma1 (Homo sapiens) (UniProt O43741+P54619+Q13131). Kind of assay: Activation of human recombinant AMPKalpha1beta2gamma1 expressed in Escherichia coli at 20 uM incubated for 1 hr using serine/threonine kinase substrate.
For assay [11], the target named is AMP-activated protein kinase alpha-1/beta-2/gamma-3 (Homo sapiens) (UniProt O43741+Q13131+Q9UGI9). Kind of assay: Activation of human recombinant AMPKalpha1beta2gamma3 expressed in Escherichia coli at 20 uM incubated for 1 hr using serine/threonine kinase substrate.
Assay [12] has as its target AMPK alpha2/beta1/gamma1 (Homo sapiens) (UniProt P54646+P54619+Q9Y478). Kind of assay: Activation of human recombinant AMPKalpha2beta1gamma1 expressed in Escherichia coli at 20 uM incubated for 1 hr using serine/threonine kinase substrate.
In assay [13] the target is AMP-activated protein kinase alpha-2/beta-1/gamma-3 (Homo sapiens) (UniProt P54646+Q9Y478+Q9UGI9). Kind of assay: Activation of human recombinant AMPKalpha2beta1gamma3 expressed in Escherichia coli at 20 uM incubated for 1 hr using serine/threonine kinase substrate.
The target of assay [14] is AMPK alpha2/beta2/gamma1 (Homo sapiens) (UniProt P54646+O43741+P54619). Description: Activation of human recombinant AMPKalpha2beta2gamma1 expressed in Escherichia coli at 20 uM incubated for 1 hr using serine/threonine kinase substrate.
The target in assay [15] is AMP-activated protein kinase alpha-2/beta-2/gamma-2 (Homo sapiens) (UniProt P54646+O43741+Q9UGJ0). Description: Activation of human recombinant AMPKalpha2beta2gamma2 expressed in Escherichia coli at 20 uM incubated for 1 hr using serine/threonine kinase substrate.
The subject of assay [16] is L6. Description: Inhibition of mitochondrial membranes potential in rat L6 cells assessed as mitochondrial membranes potential level at 20 uM incubated for 40 mins by JC1 dye staining based fluorescence assay (reference value: 100 +/- 2.8%). Also noted: scale not given: the % may be the effect or the level left. Format: functional.
In assay [17] the test system is L6. Description: Inhibition of oxygen consumption rate in rat L6 cells assessed as oxygen consumption level at 10 uM (reference value: 100 +/- 1.6%). Also noted: scale not given: the % may be the effect or the level left. Format: functional.
Assay [18] deals with L6. Kind of assay: Inhibition of oxygen consumption rate in rat L6 cells assessed as oxygen consumption level at 20 uM (reference value: 100 +/- 1.6%). Format: functional. On the set-up: scale not given: the % may be the effect or the level left.
A short description of assay [19]: Inhibition of oxygen consumption rate in isolated mitochondria from rat L6 cells assessed as oxygen consumption level at 1.2 uM (reference value: 100 +/- 1.9%). Also noted: scale not given: the % may be the effect or the level left. Type of assay: functional.
The nature of assay [20]: Inhibition of oxygen consumption rate in isolated mitochondria from rat L6 cells assessed as oxygen consumption level at 2.5 uM (reference value: 100 +/- 1.9%). Format: functional. On the set-up: scale not given: the % may be the effect or the level left.
Assay [21] in a line: Inhibition of oxygen consumption rate in isolated mitochondria from rat L6 cells assessed as oxygen consumption level at 5 uM (reference value: 100 +/- 1.9%). Format: functional. Also noted: scale not given: the % may be the effect or the level left.
A short description of assay [22]: Inhibition of oxygen consumption rate in isolated mitochondria from rat L6 cells assessed as oxygen consumption level at 10 uM (reference value: 100 +/- 1.9%). Format: functional. On the set-up: scale not given: the % may be the effect or the level left.
Assay [23] relates to L6. Kind of assay: Inhibition of oxygen consumption rate in rat L6 cells. Format: functional, cell-based.
Assay [24] deals with L6. Kind of assay: Inhibition of oxygen consumption rate in isolated mitochondria from rat L6 cells. Type of assay: functional.

Each structure is given as a SMILES string. Calls of active or inactive are those of the source. The rule behind the calls is not given here.

AMP-activated protein kinase alpha-2/beta-1/gamma-3 (Homo sapiens), sequence (P54646 whole entry): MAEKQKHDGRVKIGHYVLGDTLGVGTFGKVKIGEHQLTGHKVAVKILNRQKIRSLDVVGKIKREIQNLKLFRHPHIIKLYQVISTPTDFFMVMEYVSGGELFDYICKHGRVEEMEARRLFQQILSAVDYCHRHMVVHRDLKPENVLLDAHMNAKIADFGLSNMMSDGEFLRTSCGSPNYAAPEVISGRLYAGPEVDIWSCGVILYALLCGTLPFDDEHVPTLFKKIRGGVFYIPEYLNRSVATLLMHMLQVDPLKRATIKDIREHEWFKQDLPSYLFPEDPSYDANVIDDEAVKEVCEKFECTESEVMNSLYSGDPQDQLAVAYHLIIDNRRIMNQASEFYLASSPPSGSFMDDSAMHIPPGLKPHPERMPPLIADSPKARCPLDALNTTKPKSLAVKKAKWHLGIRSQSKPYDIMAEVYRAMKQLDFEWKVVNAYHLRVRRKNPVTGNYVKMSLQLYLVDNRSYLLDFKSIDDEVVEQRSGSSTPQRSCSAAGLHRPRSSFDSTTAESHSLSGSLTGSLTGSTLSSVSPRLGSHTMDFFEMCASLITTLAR
AMP-activated protein kinase alpha-2/beta-1/gamma-3 (Homo sapiens), sequence (Q9UGI9 whole entry partner): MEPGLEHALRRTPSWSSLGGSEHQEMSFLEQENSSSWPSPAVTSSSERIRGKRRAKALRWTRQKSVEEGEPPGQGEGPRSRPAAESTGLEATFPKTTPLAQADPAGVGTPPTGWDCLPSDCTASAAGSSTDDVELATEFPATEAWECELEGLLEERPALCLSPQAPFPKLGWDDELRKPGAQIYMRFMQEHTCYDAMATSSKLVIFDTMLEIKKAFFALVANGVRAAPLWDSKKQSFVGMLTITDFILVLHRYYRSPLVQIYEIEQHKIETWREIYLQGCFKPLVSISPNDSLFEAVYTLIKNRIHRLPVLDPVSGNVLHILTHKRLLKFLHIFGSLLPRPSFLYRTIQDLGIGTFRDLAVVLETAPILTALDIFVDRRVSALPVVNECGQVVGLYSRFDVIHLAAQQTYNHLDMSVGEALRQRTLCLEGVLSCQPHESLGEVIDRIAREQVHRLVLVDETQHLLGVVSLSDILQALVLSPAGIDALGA
AMP-activated protein kinase alpha-2/beta-1/gamma-3 (Homo sapiens), sequence (Q9Y478 2-270 partner limits assumed): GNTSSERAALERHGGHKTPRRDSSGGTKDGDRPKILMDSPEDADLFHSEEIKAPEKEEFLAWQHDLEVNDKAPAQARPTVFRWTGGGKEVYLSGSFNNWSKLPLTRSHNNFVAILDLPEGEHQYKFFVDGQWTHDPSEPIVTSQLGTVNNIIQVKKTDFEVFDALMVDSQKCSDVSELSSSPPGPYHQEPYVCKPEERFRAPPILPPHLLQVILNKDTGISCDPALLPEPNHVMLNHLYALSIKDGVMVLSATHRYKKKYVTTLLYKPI
AMPK alpha2/beta1/gamma1 (Homo sapiens), sequence (P54619 whole entry partner): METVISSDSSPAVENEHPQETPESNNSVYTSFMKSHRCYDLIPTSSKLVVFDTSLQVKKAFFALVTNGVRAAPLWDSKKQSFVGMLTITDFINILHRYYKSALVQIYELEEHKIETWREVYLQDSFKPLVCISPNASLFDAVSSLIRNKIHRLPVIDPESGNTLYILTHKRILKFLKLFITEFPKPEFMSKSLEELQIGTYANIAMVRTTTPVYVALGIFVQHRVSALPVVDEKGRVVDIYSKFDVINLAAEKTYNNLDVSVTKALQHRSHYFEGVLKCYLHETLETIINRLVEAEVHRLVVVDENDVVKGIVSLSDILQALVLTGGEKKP
AMPK alpha2/beta1/gamma1 (Homo sapiens), sequence (P54646 whole entry): as the sequence (P54646 whole entry) above
AMPK alpha2/beta1/gamma1 (Homo sapiens), sequence (Q9Y478 2-270 partner limits assumed): as the sequence (Q9Y478 2-270 partner limits assumed) above
AMP-activated protein kinase (AMPK) alpha-1/beta-1/gamma-1 (Homo sapiens), sequence (P54619 whole entry): as the sequence (P54619 whole entry partner) above
AMP-activated protein kinase (AMPK) alpha-1/beta-1/gamma-1 (Homo sapiens), sequence (Q13131 whole entry partner): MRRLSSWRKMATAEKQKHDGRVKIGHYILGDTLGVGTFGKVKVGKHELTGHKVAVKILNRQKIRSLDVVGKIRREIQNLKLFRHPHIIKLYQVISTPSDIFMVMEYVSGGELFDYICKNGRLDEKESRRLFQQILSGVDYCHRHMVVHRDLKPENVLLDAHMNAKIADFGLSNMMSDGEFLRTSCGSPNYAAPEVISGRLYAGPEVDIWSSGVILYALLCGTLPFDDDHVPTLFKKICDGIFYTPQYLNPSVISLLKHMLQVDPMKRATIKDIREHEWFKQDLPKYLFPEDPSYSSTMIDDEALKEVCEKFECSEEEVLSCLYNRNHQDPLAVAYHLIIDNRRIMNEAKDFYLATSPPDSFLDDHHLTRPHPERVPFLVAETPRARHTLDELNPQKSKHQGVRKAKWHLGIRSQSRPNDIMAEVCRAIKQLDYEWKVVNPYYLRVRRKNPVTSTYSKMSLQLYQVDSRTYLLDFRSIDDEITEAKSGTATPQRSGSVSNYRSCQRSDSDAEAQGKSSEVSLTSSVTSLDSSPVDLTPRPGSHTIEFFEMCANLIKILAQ
AMP-activated protein kinase (AMPK) alpha-1/beta-1/gamma-1 (Homo sapiens), sequence (Q9Y478 2-270 partner limits assumed): as the sequence (Q9Y478 2-270 partner limits assumed) above
AMPK alpha1/beta2/gamma1 (Homo sapiens), sequence (O43741 whole entry, looked up): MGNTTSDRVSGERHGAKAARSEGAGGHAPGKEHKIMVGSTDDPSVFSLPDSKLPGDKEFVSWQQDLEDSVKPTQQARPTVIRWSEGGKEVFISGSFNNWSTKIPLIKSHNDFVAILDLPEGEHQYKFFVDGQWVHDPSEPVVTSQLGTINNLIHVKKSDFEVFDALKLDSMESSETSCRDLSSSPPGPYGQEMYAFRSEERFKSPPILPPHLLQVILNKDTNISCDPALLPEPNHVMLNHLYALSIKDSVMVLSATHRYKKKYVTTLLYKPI
AMPK alpha1/beta2/gamma1 (Homo sapiens), sequence (P54619 whole entry, looked up): as the sequence (P54619 whole entry partner) above
AMPK alpha1/beta2/gamma1 (Homo sapiens), sequence (Q13131 whole entry, looked up): as the sequence (Q13131 whole entry partner) above

In [1], `COc1ccc(OC)c2c1CC1c3cc(C(=O)O)sc3CCN1C2` (centres undefined) returned an Activity of 116%.

Compound `COc1cc2c(cc1OC)CN1CCc3sccc3C1C2` (centres undefined) came in with an Activity in assay [1] of 114.4%.

`COc1ccc2c(c1OC)CN1CCc3sccc3C1C2` (centres undefined) yielded an Activity in [1] of 79.5%.

Take `CC(C)(C)C(=O)Nc1ccc2c(c1)CC1c3ccsc3CCN1C2` (centres undefined): in assay [1], the Activity came to 112.3%.

`O=C(Cc1ccccc1)Nc1ccc2c(c1)CC1c3ccsc3CCN1C2` (centres undefined) came in with an Activity in [1] of 120.4%.

For `COc1ccc(OC)c2c1CC1c3cc(COC(C)=O)sc3CCN1C2` (centres undefined), in assay [1], the Activity is 107.6%.

For the compound `COc1ccc(OC)c2c1CC1c3cc(C(=O)N4CCOCC4)sc3CCN1C2` (centres undefined), in assay [1], the Activity is 93.2%.

In assay [1], `COc1ccc(OC)c2c1CC1c3cc(CO)sc3CCN1C2` (centres undefined) displayed an Activity of 109.5%.

For the compound `COc1ccc(OC)c2c1CC1c3ccsc3CCN1C2` (centres undefined), the Activity in [1] is 178.1%; in assay [2], 56.7%; in assay [3], 46.6%; in assay [4], 26.1%; in assay [6], “Dose-dependent effect”; in assay [7], “Dose-dependent effect”. For the same compound, the Activity in assay [16] was determined as 81.5%; in assay [17] it was 92.9%; in assay [18], 90.4%; in [19], 78.9%; in [20], 69.3%; in assay [21], 63.6%. For the same compound, in assay [22], the Activity was 59.2%. Also, the inhibition entry in assay [5], in assay [23] and in assay [24] was “Dose-dependent effect” throughout. Besides, the result in [8], in [9], in [10], in assay [11], in assay [12] and in [13] was inactive. Moreover, the result in [14] and in assay [15] was inactive.

In turn, `CNC(=O)c1cc2c(s1)CCN1Cc3c(OC)ccc(OC)c3CC21` (centres undefined) had an Activity in assay [1] of 113.8%.

`Cc1ccc(C)c2c1CC1c3ccsc3CCN1C2` (centres undefined): in assay [1], the Activity was found to be 95.6%.

With `c1cncc(Cc2cc3c(s2)CCN2Cc4ccccc4CC32)c1` (centres undefined), the Activity in [1] is 151.9%.

Turning to `COc1cc2c(cc1O)CN1CCc3sccc3C1C2` (centres undefined), the Activity in [1] is 105.2%.

Turning to `COc1ccc(OC)c2c1CC1c3cc(CN4CCOCC4)sc3CCN1C2` (centres undefined), the Activity in [1] amounted to 101%.

On to `c1cc2c(s1)CCN1Cc3cc4c(cc3CC21)OCO4` (centres undefined), for which the Activity in [1] was 102.7%.

`COc1cc2c(c(OC)c1OC)CN1CCc3sccc3C1C2` (centres undefined) came in with an Activity in [1] of 131.1%.
